Assay results from patent US11110070B2 (priority 2015, dated 2021).
Entries after “also recorded” stand apart in the source; their conditions may differ.

Key:
129S6/SvEvTac mice [1] = assay: Dominant interaction test after SD; type: in vivo
Procedure: Adult aggressor CD-1 male mice were single-housed in Macrolon® polycarbonate resin cages (15.25 in×7.8 in×9.5 in) (Animal Care Systems, Inc., Centennial, Colo.). Male 129S6/SvEvTac mice (9 weeks of age) were subsequently placed into the resident. CD-1 mouse's cage. Three antagonistic encounters were allowed between the CD-1 mouse and the intruder. Each of these encounters typically lasted less than 5 min. Following the encounters, mice were separated by a polished stainless steel cage divider (Animal Care Systems, Inc., Centennial, Colo., P/N C79171), which allowed for olfactory and auditory communication, but limited visual or tactile contact. The partition was removed daily for 2 weeks and 3 antagonistic encounters were allowed between the mice each day. This procedure consistently yielded a submissive phenotype in the experimental intruder mice. Control (Ctrl) mice were group housed 4 to 5 per cage in Macrolon® polycarbonate resin cages without dividers.
Dominant interaction was performed as previously described (A12). Briefly, mice were placed into a large open field containing 2 upside-down wire mesh pencil cups. One pencil cup served as a novel object or empty container. The other pencil cup contained the CD-1 aggressor mouse. Mice were placed in the middle of the open field arena and allowed to explore for 10 min. Sessions were videotaped and the first 5 min were later analyzed using behavioral tracking software (TopScan, CleverSys, Reston, Va.).

[2] = tested on: adult hippocampal neurogenesis; assay: Doublecortin and Ki67 immunohistochemistry, dentate gyrus; type: in vivo, mice; details: for number of Ki67+ cells: ketamine vs saline (FIG. 6K)
Procedure: Mice were deeply anesthetized with ketamine (100 mg kg) and transcardially perfused with IX phosphate buffer saline (PBS), followed by chilled 4% paraformaldehyde (PFA)/IX PBS (A15), Brains were post-fixed overnight in 4% PFA at 4° C., then cryoprotected in 30% sucrose/1× PBS, and stored at 4° C. Serial coronal sections (35 μm) were cut through the entire hippocampus on a cryostat and stored in IX PBS with 0.1% NaN3. Doublecortin (DCX) immunohistochemistry was performed as previously described (A15). For DCX immunohistochemistry, sections were washed in 1× PBS containing 0.5% Triton and then quenched in 0.3% H2O2 in IX PBS/CH3OH (1:1) for 15 min at room temperature. Sections were blocked in 10% normal donkey serum in 1× PBS with 0.5% Triton X-100 for 2 h at room temperature. Incubation with primary antibody was performed at 4° C. overnight (goat anti-DCX, 1:500, Santa Cruz Biotechnology, Santa Cruz, Calif., #SC 8,066) in 1× PBS with 0.5% Triton X-100. Sections were then incubated with a biotinylated secondary antibody (donkey anti-goat; 1:250, Jackson lmmunoResearch, West Grove, Pa.) for 2 h at room temperature. Sections were treated with avidin-biotin-peroxidase complex (ABC Elite Kit, Vector Labs, Burlingame, Calif.) followed by 3,3′ diaminobenzidine as a substrate for staining (Vector, Burlingame, Calif.).
Ki67 immunohistochemistry was performed as previously described (A16). For Ki67 immunohistochemistry, sections were washed in 1× PBS containing 0.5% Triton, and then blocked in 10% normal donkey serum in 1× PBS with 0.5% Triton X-100 for 2 h at room temperature. Incubation with primary antibody was performed at 4° C. overnight (rabbit anti-Ki67, 1:100, Vector Laboratories. Burlingame, Calif., #VP-RM04) in 1× PBS with 0.5% Triton X-100. Sections were then incubated with a biotinylated secondary antibody (donkey anti-rabbit; 1:250, Jackson ImmunoResearch, West Grove, Pa.) for 2 h at room temperature. Sections were treated with avidin-biotin-peroxidase complex (ABC Elite Kit, Vector Labs, Burlingame, Calif.) followed by 3,3′ diaminobenzidine as a substrate for staining (Vector, Burlingame, Calif.).
An investigator blind to treatment used a Zeiss Axioplan-2 upright microscope (Oberkochen, Germany) to count cells bilaterally in the granule cell layer of the dentate gyms throughout the entire rostra-caudal axis of the hippocampus (HPC). Every sixth section throughout the entire extent of the HPC was included in the analysis. Cells were counted bilaterally using a 20× objective. The average cells per section are presented throughout the text.

129S6/SvEvTac mice [3] = assay: 1-shock contextual fear conditioning (CFC) in SD experiments; type: in vivo; details: ketamine after SD
Procedure: The 1-shock CFC procedure was performed as previously published (A15). Briefly, mice were placed into context A and administered a 2-s shock (0.75 mA) 180 s later. Mice were removed from the context 15 s following the termination of shock (at 197 s). For context retrieval, mice were placed back into context A for 180 s. For alternate contexts, mice were placed into the contexts for 180 s.

[4] = Body weight in CORT model; type: in vivo, mice; details: ketamine 90 mg kg^−1 single injection or fluoxetine 18 mg kg^−1 for 3 weeks, before CORT
129S6/SvEvTac mice [5] = assay: FST after reinstatement; type: in vivo
Procedure: The FST was administered as previously described (Richardson-Jones et al., 2010; Brachman et al., 2016).

chronic PTSD = details: intravenous infusion; compared with midazolam; cited from earlier work
[6] = SD mice, ketamine 30 mg kg^−1 before SD, vs SD-Sal

CNC1(c2ccccc2Cl)CCCCC1=O (racemic) [ketamine, (RS)-2-(2-chlorophenyl)-2-(methylamino)cyclohexanone]
time investigating the empty enclosure quadrant (129S6/SvEvTac mice [1]; Ctrl mice, ketamine 30 mg kg^−1 vs saline): equivalent amount of time investigating the empty enclosure quadrant | interaction with the CD-1 aggressor mouse (129S6/SvEvTac mice [1]; [6]): significantly increased willingness to interact with the CD-1; also recorded: considerably more time investigating a CD-1 mouse | time investigating the empty enclosure quadrant (129S6/SvEvTac mice [1]; [6]): significantly less time investigating the empty enclosure quadrant | number of Ki67+ cells ([2]; Ctrl mice): increases | number of Ki67+ cells ([2]; SD mice): not in SD mice | number of Ki67 cells in the dentate gyrus ([2]; ketamine administered after SD): significantly increases the number of Ki671 cells | DCX levels ([2]; ketamine in post-SD design (FIG. 6L)): does not alter DCX levels | adult hippocampal neurogenesis (levels of doublecortin and Ki67) ([2]; prophylactic ketamine before SD): did not observe an effect | CFC learning (freezing) (129S6/SvEvTac mice [3]): did not impact CFC learning; also recorded: comparable levels of freezing | CORT-induced increase in body weight [4]: prevented the CORT-induced increase in body weight | time immobile in the FST (129S6/SvEvTac mice [5]; ketamine 1 week prior to 1-shock reinstatement): equal levels of immobility | time immobile in the FST (129S6/SvEvTac mice [5]; ketamine 1 week prior to 3-shock reinstatement): equal levels of immobility in the FST | PTSD symptom severity (chronic PTSD): significant and rapid reduction in PTSD symptom severity
